Blank lines part the entries; values can stand above or below the compound they belong to.
How the values were obtained:
[1] = log P by HPLC (OECD Guideline 117), method [a] acidic range; format: physicochemical; conditions: for logP[a]: method [a] acidic range; for chromatographic logP: reversed-phase C18 HPLC column
Protocol: (§1) The log P values were determined analogously to OECD Guideline 117 (EC Directive 92/69/EEC) by HPLC (high-performance liquid chromatography) using reversed-phase columns (C 18), by the following methods:
[a] The LC-MS determination in the acidic range is effected at pH 2.7 with 0.1% aqueous formic acid and acetonitrile (contains 0.1% formic acid) as eluents; linear gradient from 10% acetonitrile to 95% acetonitrile.

[2] = log P by HPLC (OECD Guideline 117), method [b] neutral range; format: physicochemical; conditions: for logP[b]: method [b] neutral range; for chromatographic logP: reversed-phase C18 HPLC column
Protocol: as §1
[b] The LC-MS determination in the neutral range is effected at pH 7.8 with 0.001 molar aqueous ammonium hydrogencarbonate solution and acetonitrile as eluents; linear gradient from 10% acetonitrile to 95% acetonitrile.

Tetranychus urticae = Tetranychus urticae spray test, OP-resistant (TETRUR); format: in vivo; conditions: after 6 days; for pest or weed control at 500 g/ha: Tetranychus urticae, 144 h, read-out: efficacy
Outline: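 Bean leaf discs infested with all stages of an OP-resistant Tetranychus urticae strain sprayed with compound in acetone/DMF with alkylaryl polyglycol ether emulsifier, diluted in water. Efficacy in % scored after 6 days; 100% means all mites killed.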

[3] = pH 2.7, HPLC method [a], acidic range, read-out: logP[a]

Structure (SMILES): Cc1cc(F)c(-n2nc(SC(C)C)n(C)c2=O)cc1[S+]([O-])CC(F)(F)F (stereo not drawn) [Example 275]
- logP[a] ([1]; HPLC): 2.73
- logP[b] ([2]; HPLC): 2.68
- efficacy (Tetranychus urticae; application rate of 500 g/ha): 100%

Structure (SMILES): Cc1cc(F)c(-n2nc(C)n(N)c2=O)cc1SCC(F)(F)F [Example 200]
- logP[a] ([1]; HPLC): 2.18
- logP[b] ([2]; HPLC): 2.13
- efficacy (Tetranychus urticae; application rate of 500 g/ha): 100%

Structure (SMILES): Cc1cc(F)c(-n2nc(-c3ccc(Cl)cc3)oc2=O)cc1SCC(F)(F)F [Example 458]
- logP[a] ([1]; HPLC): 4.85
- logP[b] ([2]; HPLC): 4.78
- efficacy (Tetranychus urticae; application rate of 500 g/ha): 100%

Structure (SMILES): Cc1cc(F)c(-n2nc(C)n(C3CC3)c2=O)cc1[S+]([O-])CC(F)(F)F (stereo not drawn) [Example 41]
- logP[a] ([1]; HPLC): 1.85
- logP[b] ([2]; HPLC): 1.79
- efficacy (Tetranychus urticae; application rate of 500 g/ha): 90%

Structure (SMILES): CCOCc1nn(-c2cc(SCC(F)(F)F)c(C)cc2F)c(=S)n1C1CC1 [Example 500]
- logP[a] ([1]; HPLC): 3.82
- logP[b] ([2]; HPLC): 3.77
- efficacy (Tetranychus urticae; application rate of 500 g/ha): 100%

Structure (SMILES): COc1ccc(-n2nc(C(F)(F)F)n(C3CC3)c2=O)cc1SCC(F)(F)F [Example 52]
- logP[a] ([1]; HPLC): 3.84
- logP[b] ([2]; HPLC): 3.79
- efficacy (Tetranychus urticae; application rate of 500 g/ha): 90%

Structure (SMILES): CC(C)(C)COc1nn(-c2cc([S+]([O-])CC(F)(F)F)c(Cl)cc2Cl)c(=O)n1C1CC1 (stereo not drawn) [Example 405]
- logP[a] ([1]; HPLC): 4.36
- logP[b] ([2]; HPLC): 4.18
- efficacy (Tetranychus urticae; application rate of 500 g/ha): 90%

Structure (SMILES): CCOc1nn(-c2cc([S+]([O-])CC(F)(F)F)c(C)cc2F)c(=O)n1C1CC1 (stereo not drawn) [Example 121]
- logP[a] ([1]; HPLC): 2.47
- logP[b] ([2]; HPLC): 2.43
- efficacy (Tetranychus urticae; application rate of 500 g/ha): 100%

Structure (SMILES): O=c1n(-c2ccc(Br)c(SCC(F)(F)F)c2)nc(OCC(F)(F)F)n1C1CC1 [Example 378]
- logP[a] ([1]; HPLC): 4.43
- logP[b] ([2]; HPLC): 4.48
- efficacy (Tetranychus urticae; application rate of 500 g/ha): 90%

Structure (SMILES): CC1=C(C)C(=O)N(c2cc(SCC(F)(F)F)c(C)cc2C)C1=O [Example 342]
- log P[a] ([1]; HPLC, acidic range, pH 2.7): 2.07
- logP[a] ([1]; HPLC): 3.73
- logP[b] ([2]; HPLC): 3.70
- log P[b] ([2]; HPLC, neutral range, pH 7.8): 3.67
- efficacy (Tetranychus urticae; application rate of 500 g/ha): 90%

Structure (SMILES): Cc1cc(F)c(-n2nc(C3CCCC3)n(C3CC3)c2=S)cc1SCC(F)(F)F [Example 497, 5-Cyclopentyl-4-cyclopropyl-2-{2-fluoro-4-methyl-5-[(2,2,2-trifluoroethyl)sulphanyl]-phenyl}-2,4-dihydro-3H-1,2,4-triazole-3-thione]
- chromatographic logP [1, 3]: 4.68
- chromatographic logP ([1]; pH 2.7, HPLC, acidic range, pH 2.7, read-out: log P[a]): 4.68
- chromatographic logP ([2]; HPLC, neutral range, pH 7.8): 4.57
- pest or weed control at 500 g/ha (Tetranychus urticae; application rate of 500 g/ha): 90%

Structure (SMILES): COc1cc(F)c(-n2nc(OCC(F)(F)F)n(C3CC3)c2=O)cc1SCC(F)(F)F [Example 188]
- logP[a] ([1]; HPLC): 3.49
- logP[b] ([2]; HPLC): 3.46
- efficacy (Tetranychus urticae; application rate of 100 g/ha): 90%

Structure (SMILES): Cc1cc(F)c(-n2nc(-c3ccncc3)oc2=O)cc1SCC(F)(F)F [Example 459]
- logP[a] ([1]; HPLC): 3.20
- logP[b] ([2]; HPLC): 3.20
- efficacy (Tetranychus urticae; application rate of 500 g/ha): 90%

Structure (SMILES): Cc1cc(F)c(-n2nc(-c3cccc(F)c3)n(C3CC3)c2=O)cc1SCC(F)(F)F [Example 69]
- logP[a] ([1]; HPLC): 3.98
- logP[b] ([2]; HPLC): 3.89
- efficacy (Tetranychus urticae; application rate of 100 g/ha): 100%

Structure (SMILES): CCSc1nn(-c2cc([S+]([O-])CC(F)(F)F)c(C)cc2F)c(=O)n1C1CC1 (stereo not drawn) [Example 262]
- logP[a] ([1]; HPLC): 2.81
- logP[b] ([2]; HPLC): 2.76
- efficacy (Tetranychus urticae; application rate of 500 g/ha): 100%

Structure (SMILES): Cc1cc(Cl)c(-n2nc(OCC(C)(C)C)n(C3CC3)c2=O)cc1SCC(F)(F)F [Example 396]
- logP[a] ([1]; HPLC): 4.92
- logP[b] ([2]; HPLC): 4.85
- efficacy (Tetranychus urticae; application rate of 500 g/ha): 100%

Structure (SMILES): Cc1cc(C)c(-n2ncn(C(C)(C)C)c2=O)cc1SCC(F)(F)F [Example 371]
- logP[a] ([1]; HPLC): 3.46
- logP[b] ([2]; HPLC): 3.39
- efficacy (Tetranychus urticae; application rate of 500 g/ha): 100%

Structure (SMILES): CCC(C)c1nn(-c2cc(SCC(F)(F)F)c(C)cc2F)c(=O)n1C1CC1 (stereo not drawn) [Example 85]
- logP[a] ([1]; HPLC): 4.01
- logP[b] ([2]; HPLC): 3.94
- efficacy (Tetranychus urticae; application rate of 500 g/ha): 100%

Structure (SMILES): CC(C)(C)COc1nn(-c2cc(SCC(F)(F)F)c(Cl)cc2Cl)c(=O)n1C1CC1 [Example 397]
- logP[a] ([1]; HPLC): 5.12
- logP[b] ([2]; HPLC): 5.04
- efficacy (Tetranychus urticae; application rate of 500 g/ha): 100%

Structure (SMILES): CCC[S+]([O-])c1nn(-c2cc(SCC(F)(F)F)c(C)cc2F)c(=O)n1C1CC1 (stereo not drawn) [Example 236]
- logP[a] ([1]; HPLC): 3.05
- logP[b] ([2]; HPLC): 2.98
- efficacy (Tetranychus urticae; application rate of 500 g/ha): 90%

Structure (SMILES): COc1ccccc1-c1nn(-c2cc(SCC(F)(F)F)c(C)cc2F)c(=O)n1C1CC1 [Example 366]
- logP[a] ([1]; HPLC): 3.77
- logP[b] ([2]; HPLC): 3.71
- efficacy (Tetranychus urticae; application rate of 500 g/ha): 100%

Structure (SMILES): CCOc1nn(-c2cc(SCC(F)(F)F)c(C)cc2F)c(=O)n1CC [Example 401]
- logP[a] ([1]; HPLC): 3.62
- logP[b] ([2]; HPLC): 3.53
- efficacy (Tetranychus urticae; application rate of 500 g/ha): 100%

Structure (SMILES): Cc1cc(F)c(-n2nc(C(C)(C)C)n(C3CC3)c2=O)cc1[S+]([O-])CC(F)(F)F (racemic) [Example 64]
- logP[a] ([1]; HPLC): 2.95
- logP[b] ([2]; HPLC): 2.97
- efficacy (Tetranychus urticae; application rate of 500 g/ha): 100%

Structure (SMILES): Cc1cc(F)c(-n2c(C)c(C)sc2=NCC(F)(F)F)cc1[S+]([O-])CC(F)(F)F (stereo not drawn) [Example 344]
- chromatographic logP [1, 3]: 2.17
- chromatographic logP ([2]; pH 7.8, HPLC method [b], neutral range): 3.68
- pest or weed control at 500 g/ha (Tetranychus urticae; application rate of 500 g/ha): 100%

Structure (SMILES): Cc1cc(F)c(-n2ncoc2=O)cc1SCC(F)(F)F [Example 454]
- logP[a] ([1]; HPLC): 2.85
- logP[b] ([2]; HPLC): 2.83
- efficacy (Tetranychus urticae; application rate of 500 g/ha): 90%

Structure (SMILES): Cc1cc(F)c(-n2nc(C(F)(F)F)n(N)c2=O)cc1SCC(F)(F)F [Example 205]
- logP[a] ([1]; HPLC): 3.15
- logP[b] ([2]; HPLC): 3.08
- efficacy (Tetranychus urticae; application rate of 500 g/ha): 100%

Second part, led by results:

- logP[a] ([1]; HPLC): 4.38
- logP[b] ([2]; HPLC): 4.32
Structure (SMILES): COc1cc(F)c(-n2nc(OCC(C)(C)C)n(C3CC3)c2=O)cc1SCC(F)(F)F [Example 395]
- efficacy (Tetranychus urticae; application rate of 500 g/ha): 100%

- logP[a] ([1]; HPLC): 3.77
- logP[b] ([2]; HPLC): 3.74
Structure (SMILES): CCOc1nn(-c2ccc(C)c(SCC(F)(F)F)c2)c(=O)n1C [Example 130]
- efficacy (Tetranychus urticae; application rate of 500 g/ha): 90%

- logP[a] ([1]; HPLC): 2.99
- logP[b] ([2]; HPLC): 2.92
Structure (SMILES): Cc1cc(F)c(-n2nc([S+]([O-])C(C)C)n(C3CC3)c2=O)cc1SCC(F)(F)F (stereo not drawn) [Example 238]
- efficacy (Tetranychus urticae; application rate of 500 g/ha): 100%

- logP[a] ([1]; HPLC): 2.51
- logP[b] ([2]; HPLC): 2.48
Structure (SMILES): Cc1cc(F)c(-n2nc(N(C)C)n(N)c2=O)cc1SCC(F)(F)F [Example 220]
- efficacy (Tetranychus urticae; application rate of 500 g/ha): 90%

- logP[a] ([1]; HPLC): 4.24
- logP[b] ([2]; HPLC): 4.14
Structure (SMILES): Cc1cc(F)c(-n2nc(C3CC3)n(C(C)C)c2=S)cc1SCC(F)(F)F [Example 498]
- efficacy (Tetranychus urticae; application rate of 500 g/ha): 100%

- logP[a] ([1]; HPLC): 2.94
- logP[b] ([2]; HPLC): 2.85
Structure (SMILES): Cc1cc(F)c(-n2nc([S+]([O-])CC3CC3)n(C)c2=O)cc1SCC(F)(F)F (stereo not drawn) [Example 247]
- efficacy (Tetranychus urticae; application rate of 500 g/ha): 100%

- logP[a] ([1]; HPLC): 4.02
- logP[b] ([2]; HPLC): 4.04
Structure (SMILES): C=CCn1c(C(F)(F)F)nn(-c2cc(SCC(F)(F)F)c(C)cc2F)c1=O [Example 345]
- efficacy (Tetranychus urticae; application rate of 500 g/ha): 100%

- logP[a] ([1]; HPLC): 1.99
- logP[b] ([2]; HPLC): 1.95
Structure (SMILES): CCC[S+]([O-])c1nn(-c2cc([S+]([O-])CC(F)(F)F)c(C)cc2F)c(=O)n1C (stereo not drawn) [Example 246]
- efficacy (Tetranychus urticae; application rate of 500 g/ha): 100%

- logP[a] ([1]; HPLC): 3.18
- logP[b] ([2]; HPLC): 3.15
Structure (SMILES): COCc1nn(-c2cc(SCC(F)(F)F)c(C)cc2F)c(=O)o1 [Example 450]
- efficacy (Tetranychus urticae; application rate of 500 g/ha): 100%

- logP[a] ([1]; HPLC): 2.44
- logP[b] ([2]; HPLC): 2.40
Structure (SMILES): COc1nn(-c2cc([S+]([O-])CC(F)(F)F)c(C)cc2F)c(=O)n1C(C)C (stereo not drawn) [Example 413]
- efficacy (Tetranychus urticae; application rate of 500 g/ha): 90%

- logP[a] ([1]; HPLC): 2.03
- logP[b] ([2]; HPLC): 1.98
Structure (SMILES): Cc1cc(F)c(-n2nc([S+]([O-])CC3CC3)n(C)c2=O)cc1[S+]([O-])CC(F)(F)F (stereo not drawn) [Example 248]
- efficacy (Tetranychus urticae; application rate of 500 g/ha): 100%

- logP[a] ([1]; HPLC): 1.85
- logP[b] ([2]; HPLC): 1.80
Structure (SMILES): CC[S+]([O-])c1nn(-c2cc([S+]([O-])CC(F)(F)F)c(C)cc2F)c(=O)n1C1CC1 (stereo not drawn) [Example 235]
- efficacy (Tetranychus urticae; application rate of 500 g/ha): 100%
